{"source": "patent US10265286B2", "about": "“Sequelae of cardiopulmonary bypass-induced pulmonary injury” (Vanderbilt University, priority 2016, dated 2019)", "type_in_all_cases": "in vivo, human", "key": {"[1]": {"assay": "Intravenous citrulline dose escalation safety (adverse effects, hypotension)", "experimental": "The initial goal was to test the safety and pharmacokinetics of three doses of intravenous citrulline in children undergoing surgical repair of specific congenital heart defects. […] An adverse drop in mean arterial pressure was defined as a greater than a twenty percent decrease from baseline. The baseline postoperative mean arterial blood pressure was calculated as the average of mean arterial blood pressure measurements collected every 5 minutes for the 30 minutes immediately preceding the administration of the postoperative dose or infusion."}, "[2]": {"assay": "Phase IB study: plasma citrulline concentrations (Example 10A)", "details": "for Number of samples with Citrulline >100 μmol/L / Number of samples with Citrulline ≤100 μmol/L: all samples except baseline", "experimental": "(§1) Twenty two (22) patients were enrolled and treated. Patients received an IV citrulline bolus of 150 mg/kg or placebo at the initiation of CPB, followed by the addition of L-citrulline at a concentration of 200 μmol/L or placebo to the filtration or hemoconcentration replacement fluid used during CPB. A citrulline bolus of 20 mg/kg was administered 30 minutes after decannulation from CPB, immediately followed by a 9-mg/kg/hr continuous infusion of citrulline or placebo for 48 hours. Study participation ended at discharge or at Day 28 whichever came first.\n(§2) Plasma citrulline concentration levels were the primary PK variable; these were assessed in blood samples collected at 7 perioperative time points. Secondary PK variables were concentrations of arginine and nitric oxide (NO) metabolites in the same sample set. PK values were compared between groups.\nThe citrulline concentration levels during and after the CPB procedure was the PK parameter of interest in this study. The target level in patients treated with intravenous citrulline was a plasma citrulline level of >100 μmol/L during the immediate follow-up period after CPB. Plasma blood collection was performed at 7 perioperative time points: at baseline before surgery, during CPB (post-bolus 1), and after surgery/CPB at the time points 0 hours (pre bolus 2), 6 hours, 12 hours, 24 hours, and 48 hours."}, "[3]": {"assay": "Phase IB study: plasma nitric oxide (NO metabolite) concentrations", "details": "each of the treatment groups", "experimental": "as §1, §2"}, "[4]": {"assay": "Phase IB study: postoperative invasive mechanical ventilation", "details": "for patients extubated in the operating room: Site 02", "experimental": "The duration of postoperative invasive mechanical ventilation was derived as the time in hours from separation from cardiopulmonary bypass until endotracheal extubation. If a patient required reintubation within 24 hours after extubation, the reintubation time was added in the main analysis. In a second analysis, the reintubation time was not included."}, "[5]": {"assay": "Phase IB study: vasoactive medications", "experimental": "The total number of hours on vasoactive medications, including nitroglycerin, nitroprusside and vasopressin, was calculated from the end of surgery until the discontinuation of vasoactive medications or end of study medication (Hour 48), whichever occurred first. Table 14 compares the length of time on vasoactive medications for the citrulline and placebo treatment groups. The overall duration of concomitant vasoactive treatment was shorter in citrulline—than placebo-treated patients, but the difference was not statistically significant. Similar results are shown for the total vasoactive score. However, the patient receiving citrulline did, in fact, show a shorter total duration of vasoactive medication as shown in FIG. 30."}, "[6]": {"assay": "Phase IB study: composite of invasive mechanical ventilation or inotrope use", "from_the_text": "The cessation of positive pressure ventilation and of inotrope therapy are the two principal determinants of readiness for discharge from the intensive care unit. They were combined as a composite variable to serve as an additional effective surrogate endpoint for the duration of ICU stay.\nThe composite endpoint comprised the longer of the duration of positive pressure ventilatory support or of inotrope therapy. Since inotrope use was only documented until Hour 48 after surgery (end of study medication treatment), patients with inotrope use continuing until Hour 48 and with mechanical ventilation duration of ≤48 h were censored at this time point. If mechanical ventilation was continued beyond the 48-hour time point, the duration of mechanical ventilation was used in the analysis."}, "[7]": {"assay": "Phase IB study: duration of hospitalization", "details": "postoperative until discharge", "experimental": "Duration of hospitalization was calculated as the total number of days postoperative until discharge from the hospital. The average duration of hospitalization was lower in the citrulline than the placebo treatment group, however, the difference was not statistically significant (Table 17)."}, "[8]": {"assay": "Phase IB study: postoperative invasive mechanical ventilation", "details": "end of surgery until last extubation, FIG. 20"}, "[9]": {"details": "revised IV protocol, Post Bolus 1"}, "[10]": {"details": "revised IV protocol, Pre Bolus 2"}, "[11]": {"details": "end of surgery until discontinuation or Hour 48"}}, "data": [{"compound": "NC(=O)NCCCC(N)C(=O)O", "note": "(stereo not drawn) [Citrulline, 2-amino-5-(carbamoylamino)pentanoic acid]", "values": [{"measurement": "adverse side effects", "setting": "[1]; 50 mg/kg IV", "value": "No adverse side effects were noted"}, {"measurement": "adverse side effects", "setting": "[1]; 100 mg/kg IV", "value": "no adverse side effects were noted"}, {"measurement": "adverse effects", "setting": "[1]; IV doses 200, 400, and 600 mg/kg", "value": "no adverse effects were noted"}, {"measurement": "adverse effects including hypotension", "setting": "[1]; any of 50, 100, 150 mg/kg IV", "value": "no adverse effects including hypotension"}, {"measurement": "adverse side effects", "setting": "[1]; bolus 150 mg/kg plus continuous infusion 9 mg/kg/hr", "value": "No adverse side effects were noted"}, {"measurement": "significant adverse events", "setting": "[1]; bolus 150 mg/kg plus infusion 9 mg/kg/hour for 48 hours, 9 patients", "value": "one significant adverse event but it was not related to the use of IV citrulline"}, {"measurement": "Number of samples with Citrulline >100 μmol/L", "setting": "[2]; Site 01", "value": 25}, {"measurement": "Number of samples with Citrulline ≤100 μmol/L", "setting": "[2]; Site 01", "value": 2}, {"measurement": "Number of samples with Citrulline >100 μmol/L", "setting": "[2]; Site 02", "value": 29}, {"measurement": "Number of samples with Citrulline ≤100 μmol/L", "setting": "[2]; Site 02", "value": 3}, {"measurement": "samples with plasma citrulline levels <100 μmol/L", "setting": "[2]; of the total of 59 samples, excluding baseline samples", "value": 5}, {"measurement": "Citrulline concentrations, Mean ± SD", "setting": "[2]; revised IV protocol, N = 11, Baseline", "value": "200.9 ± 569.89", "unit": "µmol/L"}, {"measurement": "Citrulline concentrations, Median", "setting": "[2]; revised IV protocol, Baseline", "value": 32.0, "unit": "µmol/L"}, {"measurement": "Citrulline concentrations, Mean ± SD", "setting": "[2]; revised IV protocol, Hour 6", "value": "167.8 ± 117.67", "unit": "µmol/L"}, {"measurement": "Citrulline concentrations, Median", "setting": "[2]; revised IV protocol, Hour 6", "value": 138.0, "unit": "µmol/L"}, {"measurement": "Citrulline concentrations, Mean ± SD", "setting": "[2]; revised IV protocol, Hour 12", "value": "127.1 ± 16.18", "unit": "µmol/L"}, {"measurement": "Citrulline concentrations, Median", "setting": "[2]; revised IV protocol, Hour 12", "value": 125.0, "unit": "µmol/L"}, {"measurement": "Citrulline concentrations, Mean ± SD", "setting": "[2]; revised IV protocol, Hour 24", "value": "125.3 ± 38.74", "unit": "µmol/L"}, {"measurement": "Citrulline concentrations, Median", "setting": "[2]; revised IV protocol, Hour 24", "value": 114.0, "unit": "µmol/L"}, {"measurement": "Citrulline concentrations, Mean ± SD", "setting": "[2]; [9]", "value": "2405.9 ± 1517.4", "unit": "µmol/L"}, {"measurement": "Citrulline concentrations, Median", "setting": "[2]; [9]", "value": 2577.0, "unit": "µmol/L"}, {"measurement": "Citrulline concentrations, Mean ± SD", "setting": "[2]; [10]", "value": "890.9 ± 1077.5", "unit": "µmol/L"}, {"measurement": "Citrulline concentrations, Median", "setting": "[2]; [10]", "value": 573.0, "unit": "µmol/L"}, {"measurement": "plasma citrulline levels achieved", "setting": "[2]; revised IV protocol, target level 100 μmol/L", "value": "> 100", "unit": "µmol/L"}, {"measurement": "plasma nitric oxide levels across the sampling time points", "setting": "[3]", "value": "remained more or less unchanged"}, {"measurement": "Duration of invasive mechanical ventilation, Diff (CI) placebo vs citrulline", "setting": "[4]; Re-intubation time excluded", "value": "19.5 (1.9, 37.2) hours"}, {"measurement": "Duration of invasive mechanical ventilation, Mean ± SD", "setting": "[4]; Re-intubation time excluded", "value": "5.1 ± 8.15", "unit": "h"}, {"measurement": "Duration of invasive mechanical ventilation, Median", "setting": "[4]; Re-intubation time excluded", "value": 0.0, "unit": "h"}, {"measurement": "Duration of invasive mechanical ventilation, Range", "setting": "[4]; Re-intubation time excluded", "value": "0.0 to 22.5", "unit": "h"}, {"measurement": "Duration of invasive mechanical ventilation, Diff (CI) placebo vs citrulline", "setting": "[4]; Re-intubation time included", "value": "32.0 (−9.5, 73.4) hours"}, {"measurement": "Duration of invasive mechanical ventilation, Median", "setting": "[4]; Re-intubation time included", "value": 0.0, "unit": "h"}, {"measurement": "Duration of invasive mechanical ventilation, Range", "setting": "[4]; Re-intubation time included", "value": "0.0 to 22.5", "unit": "h"}, {"measurement": "Duration of invasive mechanical ventilation, Mean ± SD", "setting": "[4]; Re-intubation time included, N = 11", "value": "5.1 ± 8.15", "unit": "h"}, {"measurement": "Duration of invasive mechanical ventilation, Mean ± SD", "setting": "[4]; Re-intubation time included, N = 11, listed as citrulline", "value": 5, "unit": "h"}, {"measurement": "patients extubated in the operating room", "setting": "[4]; placebo 2", "value": 6, "unit": "patients"}, {"measurement": "patients extubated in the operating room", "setting": "[4]; placebo 33%", "value": 100, "unit": "%"}, {"measurement": "Total vasoactive score, Mean ± SD", "setting": "[5]; N = 11", "value": "5.5 ± 10.62"}, {"measurement": "Length of time on vasoactive medications, Diff (CI) placebo vs citrulline", "setting": "[5]; [11]", "value": "3.5 (−7.0, 14.1) hours"}, {"measurement": "Length of time on vasoactive medications, Median", "setting": "[5]; [11]", "value": 1.0, "unit": "h"}, {"measurement": "Length of time on vasoactive medications, Range", "setting": "[5]; [11]", "value": "0.0 to 17.0", "unit": "h"}, {"measurement": "Length of time on vasoactive medications, Mean ± SD", "setting": "[5]; end of surgery until discontinuation or Hour 48, N = 11", "value": "6.3 ± 7.18", "unit": "h"}, {"measurement": "Total vasoactive score, Diff (CI) placebo vs citrulline", "setting": "[5]; in vivo", "value": "5.2 (−7.7, 18.0)"}, {"measurement": "Total vasoactive score, Median", "setting": "[5]; in vivo", "value": 1.1}, {"measurement": "Total vasoactive score, Range", "setting": "[5]; in vivo", "value": "0.0-35.5"}, {"measurement": "Composite duration of invasive mechanical ventilation or inotrope use, Diff (CI) placebo vs citrulline", "setting": "[6]; Re-intubation time excluded", "value": "17.7 (−1.0, 36.4) hours"}, {"measurement": "Composite duration of invasive mechanical ventilation or inotrope use, Mean ± SD", "setting": "[6]; Re-intubation time excluded", "value": "14.3 ± 14.06", "unit": "h"}, {"measurement": "Composite duration of invasive mechanical ventilation or inotrope use, Median", "setting": "[6]; Re-intubation time excluded", "value": 15.0, "unit": "h"}, {"measurement": "Composite duration of invasive mechanical ventilation or inotrope use, Range", "setting": "[6]; Re-intubation time excluded", "value": "0.0 to 47.0", "unit": "h"}, {"measurement": "Composite duration of invasive mechanical ventilation or inotrope use, Diff (CI) placebo vs citrulline", "setting": "[6]; Re-intubation time included", "value": "30.2 (−10.8, 71.1) hours"}, {"measurement": "Composite duration of invasive mechanical ventilation or inotrope use, Mean ± SD", "setting": "[6]; Re-intubation time included", "value": "14.3 ± 14.06", "unit": "h"}, {"measurement": "Composite duration of invasive mechanical ventilation or inotrope use, Median", "setting": "[6]; Re-intubation time included", "value": 15.0, "unit": "h"}, {"measurement": "Composite duration of invasive mechanical ventilation or inotrope use, Range", "setting": "[6]; Re-intubation time included", "value": "0.0 to 47.0", "unit": "h"}, {"measurement": "Duration of hospitalization, Diff (CI) placebo vs citrulline", "setting": "[7]", "value": "3.7 (−2.2, 9.7) days"}, {"measurement": "Duration of hospitalization, Median", "setting": "[7]", "value": 5.0, "unit": "days"}, {"measurement": "Duration of hospitalization, Range", "setting": "[7]", "value": "3.0 to 7.0", "unit": "days"}, {"measurement": "Duration of hospitalization, Mean ± SD", "setting": "[7]; N = 11", "value": "4.6 ± 1.21", "unit": "days"}, {"measurement": "duration of mechanical ventilation versus placebo (Kaplan-Meier)", "setting": "[8]", "value": "reduced duration of mechanical ventilation"}]}]}
